Some results are limits rather than exact numbers.

This assay concerns the target T1, ELIC (Dickeya chrysanthemi, UniProt P0C7B7, INS163G).
T1 construct: expressed in transfected cells; host or cells: Xenopus laevis oocytes injected with cRNA
The experiment in a line: cell-based. It counts as cell-based, Erwinia chrysanthemi. Here is the method:
Xenopus laevis oocyte-positive females were purchased from NASCO (Fort Atkinson, Wisconsin, USA) and maintained according to standard methods.
The ELIC sequence (Genbank accession number POC7B7) was purchased from Genscript as a synthetic gene with optimized codon usage for expression in Escherichia coli. […] Stage V and VI oocytes were injected with 20 ng cRNA, and currents recorded 1–3 days post-injection.
In the case of `NCc1cc(=O)[nH]o1` [muscimol], the EC50 was more than 10 mM. Then `N[C@@H](CCC(=O)O)C(=O)O` [L-glutamate], with more than 10 mM; and `O=C(O)[C@@H]1CCCN1` [Proline], with more than 10 mM; and `CC(C)[C@H](N)C(=O)O` [Valine], with more than 10 mM. `CC(C)C[C@H](N)C(=O)O` [Leucine] came in with an EC50 of more than 10 mM. Then `N[C@@H](CC(=O)O)C(=O)O` [Aspartate], with more than 10 mM; and `CSCC[C@H](N)C(=O)O` [Methionine], with more than 10 mM; and `N[C@@H](Cc1ccc(O)cc1)C(=O)O` [Tyrosine], with more than 10 mM.

As to `O=C(O)CCC(=O)O` [succinic acid], the EC50 is more than 10 mM. The result for `O=C1CCCO1` [γ-butyrolactone] reads more than 10 mM; that for `N[C@@H](CO)C(=O)O` [Serine], more than 10 mM. Regarding `N[C@@H](Cc1c[nH]cn1)C(=O)O` [Histidine], the EC50 was more than 10 mM. `C[C@H](N)C(=O)O` [Alanine] displayed an EC50 of more than 10 mM. The result for `N[C@@H](Cc1ccccc1)C(=O)O` [Phenylalanine] reads more than 10 mM; that for `N[C@@H](CS)C(=O)O` [Cysteine], more than 10 mM; that for `NCCC(=O)O` [β-alanine], more than 10 mM. Then `NCCCC[C@H](N)C(=O)O` [Lysine], with more than 10 mM; and `CC[C@H](C)[C@H](N)C(=O)O` [Isoleucine], with more than 10 mM; and `N[C@@H](Cc1c[nH]c2ccccc12)C(=O)O` [Tryptophan], with more than 10 mM. The result for `NC(=O)CC[C@H](N)C(=O)O` [Glutamine] reads more than 10 mM; that for `C[C@@H](O)[C@H](N)C(=O)O` [Threonine], more than 10 mM. Take `O=C(O)[C@@H]1CCC(O)=N1` [pyroglutamate]: the EC50 is more than 10 mM. In turn, `N=C(N)NCCC[C@H](N)C(=O)O` [Arginine] came in with an EC50 of more than 10 mM. The result for `NC(=O)C[C@H](N)C(=O)O` [Asparagine] reads more than 10 mM.

The values are drawn from PMC3430861, “The pharmacological profile of ELIC, a prokaryotic GABA-gated receptor” (Neuropharmacology, 2012).
